Assays:
Test in all cases: relative viability (nuclei count vs DMSO), 5 days (fraction); higher = more cells survive
[1] = tested on: SK-LU-1
Method in brief: (§1)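 Lung cancer cell lines in 1536-well plates got either a single drug or a fixed anchor-drug dose together with five library-drug doses (not always all listed) in √10 steps, by pin tool, on the day after seeding. Nuclei were counted after 5 days, and relative viability is the treated-to-vehicle ratio of nuclei counts. Values are medians of duplicate plates.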

[2] = tested on: LK-2
Method in brief: as §1

[3] = tested on: RERF-LC-KJ
Method in brief: as §1

[4] = tested on: UMC-11
Method in brief: as §1

[5] = tested on: HCC-366
Method in brief: as §1

[6] = tested on: NCI-H441
Method in brief: as §1

[7] = tested on: NCI-H1437
Method in brief: as §1

[8] = tested on: NCI-H1755
Method in brief: as §1

[9] = tested on: NCI-H3122
Method in brief: as §1

[10] = tested on: HOP-62
Method in brief: as §1

[11] = tested on: NCI-H1734
Method in brief: as §1

[12] = tested on: PC-3 [JPC-3]
Method in brief: as §1

[13] = tested on: COR-L23
Method in brief: as §1

[14] = tested on: NCI-H596
Method in brief: as §1

[15] = tested on: NCI-H727
Method in brief: as §1

[16] = tested on: NCI-H1563
Method in brief: as §1

[17] = tested on: CAL-12T
Method in brief: as §1

[18] = tested on: ABC-1
Method in brief: as §1

[19] = tested on: NCI-H1651
Method in brief: as §1

[20] = tested on: EMC-BAC-2
Method in brief: as §1

[21] = tested on: NCI-H2347
Method in brief: as §1

[22] = tested on: HARA
Method in brief: as §1

`CN1CCN(CCOc2cc(OC3CCOCC3)c3c(Nc4c(Cl)ccc5c4OCO5)ncnc3c2)CC1` [Saracatinib] + C[C@]1(O)C[C@@H](c2nc(-c3ccc4ccc(-c5ccccc5)nc4c3)c3c(N)nccn32)C1 [Linsitinib] (partner 1 µM) gave a relative viability ([1]; first compound 0.02 µM) of 0.92, a relative viability ([1]; first compound 0.2 µM) of 0.752 and a relative viability ([1]; first compound 0.6325 µM) of 0.639. The relative viability ([1]; first compound 2 µM) was 0.374, the relative viability ([2]; first compound 0.02 µM) was 0.52 and the relative viability ([2]; first compound 0.2 µM) was 0.484. It also gave a relative viability ([2]; first compound 0.6325 µM) of 0.375, a relative viability ([2]; first compound 2 µM) of 0.3 and a relative viability ([3]; first compound 0.02 µM) of 0.938. For the same compound, the relative viability ([3]; first compound 0.2 µM) was 0.83, the relative viability ([3]; first compound 0.6325 µM) was 0.883 and the relative viability ([3]; first compound 2 µM) was 0.813. It also gave a relative viability ([4]; first compound 0.02 µM) of 1.09, a relative viability ([4]; first compound 0.6325 µM) of 0.956 and a relative viability ([4]; first compound 2 µM) of 0.8. The relative viability ([5]; first compound 0.02 µM) was 0.607, the relative viability ([5]; first compound 0.6325 µM) was 0.283 and the relative viability ([5]; first compound 2 µM) was 0.13. The relative viability ([6]; first compound 0.02 µM) was 0.508, the relative viability ([6]; first compound 0.2 µM) was 0.515 and the relative viability ([6]; first compound 0.6325 µM) was 0.682. It also gave a relative viability ([6]; first compound 2 µM) of 0.604, a relative viability ([7]; first compound 0.02 µM) of 1.04 and a relative viability ([7]; first compound 0.2 µM) of 0.985. The relative viability ([7]; first compound 0.6325 µM) was 0.981, the relative viability ([7]; first compound 2 µM) was 1.09 and the relative viability ([8]; first compound 0.02 µM) was 1. It also gave a relative viability ([8]; first compound 0.2 µM) of 0.707, a relative viability ([8]; first compound 0.6325 µM) of 0.95 and a relative viability ([8]; first compound 2 µM) of 0.896. For the same compound, the relative viability ([9]; first compound 0.02 µM) was 1.05, the relative viability ([9]; first compound 0.6325 µM) was 0.842 and the relative viability ([9]; first compound 2 µM) was 0.767. For the same compound, the relative viability ([10]; first compound 0.02 µM) was 1.02, the relative viability ([10]; first compound 0.2 µM) was 0.731 and the relative viability ([10]; first compound 0.6325 µM) was 1.35. For the same compound, the relative viability ([10]; first compound 2 µM) was 1.01, the relative viability ([11]; first compound 0.02 µM) was 0.908 and the relative viability ([11]; first compound 0.6325 µM) was 0.713. For the same compound, the relative viability ([11]; first compound 2 µM) was 0.751, the relative viability ([12]; first compound 0.02 µM) was 0.961 and the relative viability ([12]; first compound 0.2 µM) was 0.891. It also gave a relative viability ([12]; first compound 0.6325 µM) of 0.875, a relative viability ([12]; first compound 2 µM) of 0.583 and a relative viability ([13]; first compound 0.02 µM) of 0.86. The relative viability ([13]; first compound 0.2 µM) was 0.558, the relative viability ([13]; first compound 0.6325 µM) was 0.789 and the relative viability ([13]; first compound 2 µM) was 0.584. For the same compound, the relative viability ([14]; first compound 0.02 µM) was 1.01, the relative viability ([14]; first compound 0.2 µM) was 0.85 and the relative viability ([14]; first compound 0.6325 µM) was 0.877. The relative viability ([14]; first compound 2 µM) was 0.737, the relative viability ([15]; first compound 0.02 µM) was 0.284 and the relative viability ([15]; first compound 0.2 µM) was 0.159. For the same compound, the relative viability ([15]; first compound 0.6325 µM) was 0.26, the relative viability ([15]; first compound 2 µM) was 0.176 and the relative viability ([16]; first compound 0.02 µM) was 1.09. For the same compound, the relative viability ([16]; first compound 0.2 µM) was 1.16, the relative viability ([16]; first compound 0.6325 µM) was 1.05 and the relative viability ([16]; first compound 2 µM) was 0.891. For the same compound, the relative viability ([17]; first compound 0.02 µM) was 0.805, the relative viability ([17]; first compound 0.2 µM) was 0.776 and the relative viability ([17]; first compound 0.6325 µM) was 0.863. The relative viability ([17]; first compound 2 µM) was 1.03, the relative viability ([18]; first compound 0.02 µM) was 0.61 and the relative viability ([18]; first compound 0.2 µM) was 0.902. It also gave a relative viability ([18]; first compound 0.6325 µM) of 0.677, a relative viability ([18]; first compound 2 µM) of 0.753 and a relative viability ([19]; first compound 0.02 µM) of 0.944. For the same compound, the relative viability ([19]; first compound 0.2 µM) was 0.661, the relative viability ([19]; first compound 0.6325 µM) was 0.807 and the relative viability ([19]; first compound 2 µM) was 0.67. For the same compound, the relative viability ([20]; first compound 0.02 µM) was 0.813, the relative viability ([20]; first compound 0.2 µM) was 0.775 and the relative viability ([20]; first compound 0.6325 µM) was 0.642. It also gave a relative viability ([20]; first compound 2 µM) of 0.497, a relative viability ([21]; first compound 0.02 µM) of 0.916 and a relative viability ([21]; first compound 0.2 µM) of 0.902. It also gave a relative viability ([21]; first compound 0.6325 µM) of 1.13, a relative viability ([21]; first compound 2 µM) of 0.936 and a relative viability ([22]; first compound 0.02 µM) of 0.917. It also gave a relative viability ([22]; first compound 0.6325 µM) of 0.787 and a relative viability ([22]; first compound 2 µM) of 0.629.

From the supplement of paper PMC10307832
